Assay results reported in publication PMC7732531 (Frontiers in Pharmacology, 2020).
Where two headings read alike, the source gives them in different places.

What was measured:
[1] = Bioavailability study in rats (i.v. and p.o.); format: in vivo; conditions: male, rat, plasma; for MRT last: read-out: MRT(0–t)
Method: Male SD rats (200-240 g) were obtained from Beijing Vital River Laboratory Animal Technology Co., Ltd. Animals were housed in a temperature- and humidity-controlled room with a 12 h light/dark cycle. They were fasted 12 h before the experiments and had ad libitum access to water. The animal experiments were conducted in the Beijing Center for Drug Safety Evaluation and according to a protocol (IACUC-DWZX-2020-691) approved by the Institutional Animal Care and Use Committee of the Center, which followed the guidelines of the Association for Assessment and Accreditation of Laboratory Animal Care International (AAALAC). […] Pharmacokinetic parameters were calculated by the noncompartmental method using WinNonlin 7.0 (Pharsight, CA). The area under the plasma concentration time curve (AUC) from time 0 to the last time point with a measurable concentration (AUC0-t) was calculated by trapezoidal method. Bioavailability (%F) was calculated as the ratio of the mean dose-normalized AUC values for oral and intravenous dosed groups [Fp.o. = […].)]. In vivo plasma clearance and volume of distribution were archived from the pharmacokinetic study via i.v. injection.

[2] = Metabolic stability in rat liver microsomes (NADPH / UDPGA); conditions: RLM
[3] = Mass balance study in rats via oral administration; conditions: rat, feces

CCN(Cc1ccccn1)C(=O)Cc1c(-c2ccc(Cl)c(Cl)c2)nc2cc(C)ccn12 [YL-IPA08]
AUC(0-inf) ([1]; SD, iv, i.v. 0.3 mg/kg): 0.0713 ± 0.0123 µg·h/mL | AUC(0-t) ([1]; SD, iv, i.v. 0.3 mg/kg): 0.0706 ± 0.0122 µg·h/mL | clearance ([1]; SD, iv, i.v. 0.3 mg/kg): 4.3 ± 0.688 L/h/kg | half-life ([1]; SD, iv, i.v. 0.3 mg/kg): 1.13 ± 0.07 h | concentration at 0.033 h ([1]; SD, iv, i.v. 0.3 mg/kg, 0.033 h): 220 ± 32.5 ng/mL | concentration at 0.083 h ([1]; SD, iv, i.v. 0.3 mg/kg): 140 ± 36.2 ng/mL | concentration at 0.25 h ([1]; SD, iv, i.v. 0.3 mg/kg): 38.9 ± 5.41 ng/mL | concentration at 0.5 h ([1]; SD, iv, i.v. 0.3 mg/kg): 18.2 ± 1.29 ng/mL | concentration at 1 h ([1]; SD, iv, i.v. 0.3 mg/kg): 8.44 ± 1.06 ng/mL | concentration at 2 h ([1]; SD, iv, i.v. 0.3 mg/kg): 4.3 ± 0.57 ng/mL | concentration at 4 h ([1]; SD, iv, i.v. 0.3 mg/kg): 1.84 ± 0.39 ng/mL | concentration at 6 h ([1]; SD, iv, i.v. 0.3 mg/kg): 1.09 ± 0.22 ng/mL | concentration at 8 h ([1]; SD, iv, i.v. 0.3 mg/kg): 0.81 ± 0.08 ng/mL | concentration at 12 h ([1]; SD, iv, i.v. 0.3 mg/kg): 0.48 ± 0.06 ng/mL | MRT last ([1]; SD, iv, i.v. 0.3 mg/kg): 1.36 ± 0.11 h | Vd ([1]; SD, iv, i.v. 0.3 mg/kg, read-out: Vz): 6.98 ± 0.74 L/kg | AUC(0-inf) ([1]; SD, po, p.o. 1 mg/kg): 0.0136 ± 0.00437 µg·h/mL | AUC(0-t) ([1]; SD, po, p.o. 1 mg/kg): 0.0125 ± 0.00388 µg·h/mL | Cmax ([1]; SD, po, p.o. 1 mg/kg): 5.99 ± 1.36 ng/mL | Tmax ([1]; SD, po, p.o. 1 mg/kg): 3 ± 1.8 min | half-life ([1]; SD, po, p.o. 1 mg/kg): 1.66 ± 0.68 h | concentration at 0.083 h ([1]; SD, po, p.o. 1 mg/kg): 5.43 ± 1.96 ng/mL | concentration at 0.25 h ([1]; SD, po, p.o. 1 mg/kg): 5.22 ± 0.65 ng/mL | concentration at 0.5 h ([1]; SD, po, p.o. 1 mg/kg): 3.71 ± 0.79 ng/mL | concentration at 1 h ([1]; SD, po, p.o. 1 mg/kg): 3 ± 0.8 ng/mL | concentration at 2 h ([1]; SD, po, p.o. 1 mg/kg): 1.65 ± 0.44 ng/mL | concentration at 4 h ([1]; SD, po, p.o. 1 mg/kg): 1.02 ± 0.55 ng/mL | concentration at 6 h ([1]; SD, po, p.o. 1 mg/kg): 0.63 ± 0.31 ng/mL | concentration at 8 h ([1]; SD, po, p.o. 1 mg/kg): 0.63 ± 0.25 ng/mL | concentration at 12 h ([1]; SD, po, p.o. 1 mg/kg): 0.56 ± 0.27 ng/mL | MRT last ([1]; SD, po, p.o. 1 mg/kg): 3.35 ± 1.27 h | AUC(0-inf) ([1]; SD, po, p.o. 3 mg/kg): 0.0399 ± 0.00981 µg·h/mL | AUC(0-t) ([1]; SD, po, p.o. 3 mg/kg): 0.0369 ± 0.00957 µg·h/mL | Cmax ([1]; SD, po, p.o. 3 mg/kg): 19.2 ± 16.4 ng/mL | Tmax ([1]; SD, po, p.o. 3 mg/kg): 9 ± 10.2 min | half-life ([1]; SD, po, p.o. 3 mg/kg): 2.47 ± 1.54 h | concentration at 0.083 h ([1]; SD, po, p.o. 3 mg/kg): 18.9 ± 16.6 ng/mL | concentration at 0.25 h ([1]; SD, po, p.o. 3 mg/kg): 9.25 ± 4.57 ng/mL | concentration at 0.5 h ([1]; SD, po, p.o. 3 mg/kg): 7.42 ± 3.58 ng/mL | concentration at 1 h ([1]; SD, po, p.o. 3 mg/kg): 6.3 ± 3.02 ng/mL | concentration at 2 h ([1]; SD, po, p.o. 3 mg/kg): 4.07 ± 0.73 ng/mL | concentration at 4 h ([1]; SD, po, p.o. 3 mg/kg): 3.5 ± 0.73 ng/mL | concentration at 6 h ([1]; SD, po, p.o. 3 mg/kg): 2.35 ± 0.96 ng/mL | concentration at 8 h ([1]; SD, po, p.o. 3 mg/kg): 1.95 ± 0.51 ng/mL | concentration at 12 h ([1]; SD, po, p.o. 3 mg/kg): 0.84 ± 0.26 ng/mL | MRT last ([1]; SD, po, p.o. 3 mg/kg): 4.61 ± 1.49 h | AUC(0-inf) ([1]; SD, po, p.o. 10 mg/kg): 0.107 ± 0.0302 µg·h/mL | AUC(0-t) ([1]; SD, po, p.o. 10 mg/kg): 0.104 ± 0.0295 µg·h/mL | Cmax ([1]; SD, po, p.o. 10 mg/kg): 60.9 ± 44.9 ng/mL | Tmax ([1]; SD, po, p.o. 10 mg/kg): 9 ± 10.2 min | half-life ([1]; SD, po, p.o. 10 mg/kg): 2.31 ± 1.32 h | concentration at 0.083 h ([1]; SD, po, p.o. 10 mg/kg): 60.7 ± 45.1 ng/mL | concentration at 0.25 h ([1]; SD, po, p.o. 10 mg/kg): 20.5 ± 8.3 ng/mL | concentration at 0.5 h ([1]; SD, po, p.o. 10 mg/kg): 15.9 ± 4.1 ng/mL | concentration at 1 h ([1]; SD, po, p.o. 10 mg/kg): 10.2 ± 3.5 ng/mL | concentration at 2 h ([1]; SD, po, p.o. 10 mg/kg): 7.1 ± 2.7 ng/mL | concentration at 4 h ([1]; SD, po, p.o. 10 mg/kg): 5.63 ± 2.23 ng/mL | concentration at 6 h ([1]; SD, po, p.o. 10 mg/kg): 4.39 ± 2.71 ng/mL | concentration at 8 h ([1]; SD, po, p.o. 10 mg/kg): 3.61 ± 2.13 ng/mL | concentration at 12 h ([1]; SD, po, p.o. 10 mg/kg): 3.18 ± 1.43 ng/mL | concentration at 24 h ([1]; SD, po, p.o. 10 mg/kg, 24 h): 1.04 ± 0.66 ng/mL | MRT last ([1]; SD, po, p.o. 10 mg/kg): 7.73 ± 2.79 h | bioavailability ([1]; SD, po, printed in the p.o. 3 mg/kg column, read-out: F): 5.59% | bioavailability ([1]; Sprague-Dawley (SD), oral administration (1–10 mg/kg), read-out: bioavailability): ~6% | Clint normalized by CYP content [2]: 3.47 ± 0.04 ml/min/nmol CYP protein | dose excreted [3]: 0.004%
